Measurements: patent US9012419B2, “Methods and compositions related to eosinophil regulation” (University of Utah Research Foundation, priority 2006, dated 2015)
Several values for one entry are separate records, joined by “and”; a condition that tells them apart may be missing. Identical values can stand only once. Counter-ions that a name gives are not always drawn. Like-named read-outs stand apart in the source and are kept apart here.

B1: mepolizumab: anti-IL-5 drug (antibody, chains of the INN, looked up, V domains shown)
VH: QVTLRESGPALVKPTQTLTLTCTVSGFSLTSYSVHWVRQPPGKGLEWLGVIWASGGTDYNSALMSRLSISKDTSRNQVVLTMTNMDPVDTATYYCARDPPSSLLRLDYWGRGTPVTVSS
VL: DIVMTQSPDSLAVSLGERATINCKSSQSLLNSGNQKNYLAWYQQKPGQPPKLLIYGASTRESGVPDRFSGSGSGTDFTLTISSLQAEDVAVYYCQNVHSFPFTFGGGTKLEIK

Legend:
[1] = test system: IL-5 stimulated TF-1 cells; test: TF-1 cell proliferation assay, IL-5 stimulated cultures; type: cell-based, human; settings: for Di: Di=EPO IC-50/IL5 IC-50; for IL-5 IC-50 compared with lidocaine: in words
Description: (§1) Controls and test compounds were assayed in serial dilutions, ranging from 1 mM to 0.5 uM, against TF-1 cell proliferation. Compounds were solublized in DMSO in 0.2M solutions followed by serial dilutions with the culture media.
(§2) Each dilution of the compounds was tested in triplicate in a 96 well, flat bottom tissue culture plate with 10,000 TF-1 cells per well for their abilities to inhibit IL-5 and/or EPO stimulated cultures. Wells without cells were used for the background signals. Both IL-5 and EPO stimulated cell cultures were tested in assays performed on the same day. Cultures were incubated for 72 hours in a 37° C. humidified incubator. At the end of the incubation, CellTiter AQueous One Solution (Promega, Madison, Wis.) was added for 1 to 3 hours, depending on the rate of color change. Following sufficient color change, the plates were read on a spectrophotometer (SpectraMax 190, Molecular Devices) at 490 nm.
(§3) IC-50 and […] values were calculated using the software SOFTmax Pro (Molecular Devices, Sunnyvale, Calif.).
(§4) Compounds were screened by inspecting the IC-50 values of the drug candidate on the proliferation assay. […] Potencies of the investigated compounds in inhibiting TF-1 cell proliferation were evaluated by comparing their IC-50 values relative to lidocaine. Due to the ability of TF-1 cells to be stimulated by a variety of cytokines, specificity can be evaluated by comparing IL-5 and EPO stimulated cell cultures IC-50 values. Specificity or differential inhibition (Di) values can be calculated for the investigated compounds using equation 1. Di=EPO IC-50/IL5 IC-50 (equation 1)

[2] = test system: EPO stimulated TF-1 cells; test: TF-1 cell proliferation assay, EPO stimulated cultures; type: cell-based; settings: Homo sapiens
Description: as §1, §2, §3, §4

[3] = nebulized, Hunt, cited from earlier work
IL-5 = molecular target: T1, IL-5 (Homo sapiens, UniProt P05113); settings: patients with mild asthma; Leckie, 2000; cited from earlier work
T1 construct: Administration of the anti-IL-5 drug, mepolizumab, to patients with mild asthma reduced blood and sputum eosinophils; host or cells: endogenous IL-5 in human patients with mild asthma (in vivo)
T1 sequence (P05113 20-134): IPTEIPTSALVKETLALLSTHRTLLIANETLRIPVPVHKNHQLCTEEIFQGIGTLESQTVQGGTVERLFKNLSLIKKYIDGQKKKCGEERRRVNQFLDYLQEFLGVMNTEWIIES

[4] = Homo sapiens, TF-1, 72 h, Table 6, TF-1 cells with IL-5 (5 ng/mL), 72 hours, read-out: IL-5 IC-50
[5] = Homo sapiens, TF-1, 72 h, Table 7, TF-1 cells with IL-5, 72 hours, read-out: IL-5 IC-50
[6] = Table 7, TF-1 cells with EPO (2 units/mL), 72 hours, read-out: EPO IC-50
[7] = Homo sapiens, TF-1, text, IL-5 stimulated TF-1 cells, read-out: IL-5 IC-50

Molecule	IC50 [1, 4]	IC50 [1, 5]	Di ([1]; Table 7)	IC50 [2, 6]	other results
Cc1ccccc1C(=O)NCc1cccnc1 [Compound 20, 2-methyl-N-(3-pyridinylmethyl)benzamide]	90 µM	90 µM	1.700	153 µM	
CCN(CC)CC(=O)Nc1c(C)cccc1C [Compound 1, Lidocaine, reference compound]	147 µM	147 µM	1.361	200 µM	prednisolone-dependent patients able to eliminate or significantly reduce steroid usage [3]; 1996: 17 out of 20; blood eosinophil levels ([3]; placebo controlled study, mild to moderate asthma, 2004): decreased; IC50 ([1]; Homo sapiens, TF-1, text b313, TF-1 cell proliferation, read-out: IC-50 (fifty percent growth inhibition)): 147 µM; IC50 [1, 7]: 140 µM
C[C@@H](O)[C@H](NC(=O)c1ccccc1)C(=O)O [Compound 11, N-Benzoyl-L-Threonine]	30 µM				
Cc1cccc(C)c1NC(=O)CCC(C)C [Compound 26, 4-methyl-N-(2,6-dimethylphenyl)-pentanamide]	119 µM				IL-5 IC-50 compared with lidocaine [1]: lower than lidocaine's
Cc1cccc(C)c1NC(=O)C(C)N (stereo not drawn) [Compound 14, Tocainide HCL, reference compound]	49 µM				
CC1COc2c(F)c(F)cc3c(=O)c(C(=O)O)cn1c23 (stereo not drawn) [Compound 7, 9,10-Difluoro-2,3-dihydro-3-methyl-7-oxo-7H-pyrido[1,2,3-DE]-1,4-benzoxazine-6-carboxylic acid]	20 µM				
CC(C)(C)OC(=O)Nc1ccc(C(=O)NCC(=O)O)cc1 [Compound 6, Boc-4-aminohippuric Acid]	19 µM				
Nc1ccc2c(c1)OCCO2 [Compound 16, 3,4-Ethylenedioxyaniline]	69 µM	69 µM	1.971	136 µM	
Cc1cccc(C)c1NC(=O)C(C)(C)C [Compound 18, N-(2,6-dimethylphenyl)pivalamide]	79 µM				IL-5 IC-50 compared with lidocaine [1]: lower than lidocaine's
O=C(O)C1CNc2ccccc2O1 (stereo not drawn) [Compound 12, 3,4-Dihydro-2H-1,4-Benzoxazine-2-Carboxylic Acid]	38 µM				
C[C@@H]1C[C@H]2[C@@H]3CCC4=CC(=O)C=C[C@]4(C)[C@@]3(F)[C@@H](O)C[C@]2(C)[C@@]1(O)C(=O)CO [Compound 2, Dexamethasone, reference compound]	9 µM	7 µM	5.136	38 µM	Di value ([1]; EPO IC-50/IL5 IC-50): 5.136 and 5.14; IC50 [1, 7]: 4 µM
O=C(CN1CCN(c2ncccn2)CC1)Nc1ccc(F)cc1F [Compound 5, N-(2,4-difluorophenyl)-2-(4-pyrimidin-2-ylpiperazinyl)ethanamide]	5 µM				IC50 [1, 7]: 5 µM
Cc1cccc(C)c1NC(=O)Cc1ccccc1 [Compound 22, N-(2,6-dimethylphenyl)-2-phenylacetamide]	96 µM	95.5 µM	1.351	129 µM	IL-5 IC-50 compared with lidocaine [1]: lower than lidocaine's
Nc1ccc(C(=O)NCc2cccnc2)cc1 [Compound 4, 4-Amino-N-pyridin-3-yl-methyl-benzamide]	1.3 µM	1.3 µM	1.471	1.9 µM	IC50 [1, 7]: 1.3 µM
CN1CCOc2cc(Br)ccc21 [Compound 8, 7-Bromo-4-methyl-3,4-dihydro-2H-1,4-benzoxazine]	24 µM				
CN1CCC(=C2c3ccccc3CC(=O)c3sccc32)CC1 [Compound 3, Ketotifen fumarate, reference compound]	9 µM	9 µM	1.000	9 µM	IC50 [1, 7]: 9 µM
CCCCN1CCCCC1C(=O)Nc1c(C)cccc1C (stereo not drawn) [Compound 25, Bupivicaine Hydrochloride, reference compound]	107 µM				
CCCCOc1cc(C(=O)OCCN(CC)CC)ccc1N [Compound 24, Benoxinate, reference compound]	98 µM				
CCN(CC)CCOC(=O)c1ccc(N)cc1 [Compound 17, Procaine, reference compound]	71 µM	71 µM	1.535	109 µM	
CCN(CC)CC(=O)Nc1c(C)cccc1C.Cl [Compound 19, Lidocaine HCL, reference compound]			3.286		IC50 ([1]; Homo sapiens, TF-1, 72 h, read-out: IL-5 IC-50): 84 µM; IC50 ([2]; TF-1, 72 h, read-out: EPO IC-50, Table 7, TF-1 cells with EPO (2 units/mL)): 276 µM
CCCCOc1cc(C(=O)NCCN(CC)CC)c2ccccc2n1 [Compound 13, Dibucaine Hydrochloride, reference compound]	48 µM				
Cc1cccc(C)c1NC(=O)c1ccnc2ccccc12 [Compound 9, N-(2,6-dimethylphenyl)quinoline-4-carboxamide]	24 µM				IL-5 IC-50 compared with lidocaine [1]: lower than lidocaine's
c1ccc2c(c1)OCC(C1=NCCN1)O2 (stereo not drawn) [Compound 23, Idazoxan Hydrochloride, reference compound]	97 µM				
O=C(O)COC1Cc2ccccc2CN1 (stereo not drawn) [Compound 10, 3-Carboxymethoxy-1,2,3,4-Tetrahydroisoquinol]	26 µM				
CCCCCC(=O)Nc1c(C)cccc1C [Compound 15, N-(2,6-dimethylphenyl)hexanamide]	62 µM	62 µM	2.210	137 µM	IL-5 IC-50 compared with lidocaine [1]: lower than lidocaine's
Disopyramide [Compound 27, reference compound]					IC50 ([1]; Table 6, TF-1 cells with IL-5 (5 ng/mL), 72 hours, read-out: IL-5 IC-50): 129 µM
CC[N+](CC)(CC(=O)Nc1c(C)cccc1C)Cc1ccccc1 [Compound 28, Denatonium Saccharide]	136 µM				
CN1CCOc2cc(C(=O)O)ccc21 [Compound 21, 4-methyl-3,4-dihydro 2H-1,4-benoxazine 7 carboxylic acid]	92 µM	91.8 µM	1.412	130 µM	
B1					blood and sputum eosinophils (IL-5): reduced
